The values below come from US11566007B2, “Ras inhibitors” (Revolution Medicines, Inc., priority 2019, dated 2023).

Test [1] concerns NCI-H358 cells (K-Ras G12C). As to the kind of experiment: Potency assay: pERK in NCI-H358 cells. The conditions noted are these: Homo sapiens, NCI-H358; H358 KRAS G12C; read-out: pERK EC50. Type of test: cell-based, human. The essentials:
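pERK decrease read by AlphaLISA SureFire p-ERK1/2 or In-Cell Western after 4 h compound exposure at 37 °C, 5% CO2.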

Test [2] deals with NCI-H358 (K-Ras G12C). As to the kind of experiment: CellTiter-Glo cell viability assay, NCI-H358. Type of test: cell-based, human. The conditions noted are these: Homo sapiens, NCI-H358, 120 h, NCI-H358, 5-day treatment; class symbols; read-out: Additional H358 Cell Viability assay data (K-Ras G12C, IC50). The essentials:
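Cells seeded, compound added directly, 5-day exposure. Plates to RT ~30 min, CellTiter-Glo luminescence read. Normalized to DMSO avg (x100); 4-parameter logistic fit.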

In test [3] the target is K-Ras G12C (Homo sapiens (Human), UniProt P01116+P62937, G12C). The experiment in a line: Ras-Raf (BRAF RBD) disruption / FRET / MOA assay, KRAS G12C. Type of test: biochemical. The conditions noted are these: KRAS G12C, Ras-Raf disruption/FRET/MOA assay. The gist of the method: (§1)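 Compounds, top final concentration 30 μM in 10-point 3-fold series, incubated 3 hours at 25° C with nucleotide-loaded Ras, cyclophilin A and BRAF RBD.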

Test [4] concerns the target K-Ras G13C (Homo sapiens (Human), UniProt P01116+P62937, G13C). As to the kind of experiment: Ras-Raf (BRAF RBD) disruption / FRET / MOA assay, KRAS G13C. It counts as biochemical. The note with it: KRAS G13C, Ras-Raf disruption/FRET/MOA assay. The essentials:
as §1

The target in test [5] is KRAS G12S (Homo sapiens (Human), UniProt P01116+P62937, G12S). As to the kind of experiment: Ras-Raf (BRAF RBD) disruption / FRET / MOA assay, KRAS G12S. Type of test: biochemical. The conditions noted are these: class symbols. The gist of the method: as §1
Test [6] addresses KRAS G12D (Homo sapiens (Human), UniProt P01116+P62937, G12D). As to the kind of experiment: Ras-Raf (BRAF RBD) disruption / FRET / MOA assay, KRAS G12D. It counts as biochemical. The note with it: class symbols. The essentials:
as §1

Test [7] deals with KRAS G12V (Homo sapiens (Human), UniProt P01116+P62937, G12V). The experiment in a line: Ras-Raf (BRAF RBD) disruption / FRET / MOA assay, KRAS G12V. Type of test: biochemical. The essentials:
as §1

The target in test [8] is KRAS WT (Homo sapiens (Human), UniProt P01116+P62937). The experiment in a line: Ras-Raf (BRAF RBD) disruption / FRET / MOA assay, KRAS WT. Type of test: biochemical. The gist of the method:
as §1

For test [9], the target named is KRAS G13D (Homo sapiens (Human), UniProt P01116+P62937, G13D). As to the kind of experiment: Ras-Raf (BRAF RBD) disruption / FRET / MOA assay, KRAS G13D. It counts as biochemical. The gist of the method: as §1
Test [10] deals with NRAS G12C (Homo sapiens (Human), UniProt P01111+P62937, G12C). The experiment in a line: Ras-Raf (BRAF RBD) disruption / FRET / MOA assay, NRAS G12C. It counts as biochemical. The gist of the method: as §1
The mark [11] stands for this setting: read-out: IC50* KRAS G12C FRET data.
The mark [12] stands for this setting: read-out: IC50* KRAS G13C FRET data.
[13] abbreviates: Ras-Raf disruption/FRET/MOA assay, read-out: KRAS G12S FRET data IC50.
Where [14] appears, read: Ras-Raf disruption/FRET/MOA assay, read-out: KRAS G12D FRET data IC50.
Where [15] appears, read: read-out: IC50* KRAS G12V FRET data.
The mark [16] stands for this setting: read-out: IC50* KRAS WT FRET data.
Setting [17] is: read-out: IC50* KRAS G13D FRET data.
The mark [18] stands for this setting: read-out: IC50* NRAS G12C FRET data.

SMILES strings stand for the structures. Read-outs that look alike come from different tables or passages of the source.

What is called EC50 is the concentration giving half of the maximal effect. One may read the IC50 as the midpoint of a concentration-inhibition curve.

Chain of KRAS G13D (P01116-2 other isoform, or with tags, fused parts or gaps G13D): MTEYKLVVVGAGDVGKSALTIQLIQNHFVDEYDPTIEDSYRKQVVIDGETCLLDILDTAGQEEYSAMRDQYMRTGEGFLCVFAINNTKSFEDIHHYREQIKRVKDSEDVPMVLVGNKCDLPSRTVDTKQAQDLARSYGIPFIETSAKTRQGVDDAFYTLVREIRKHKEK
Chain of KRAS G13D (P62937 whole entry): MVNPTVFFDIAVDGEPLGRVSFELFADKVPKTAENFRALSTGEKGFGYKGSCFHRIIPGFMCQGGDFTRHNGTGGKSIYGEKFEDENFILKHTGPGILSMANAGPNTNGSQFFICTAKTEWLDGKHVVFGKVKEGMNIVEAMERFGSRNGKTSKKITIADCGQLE
Chain of KRAS G12D (P01116-2 other isoform, or with tags, fused parts or gaps G12D): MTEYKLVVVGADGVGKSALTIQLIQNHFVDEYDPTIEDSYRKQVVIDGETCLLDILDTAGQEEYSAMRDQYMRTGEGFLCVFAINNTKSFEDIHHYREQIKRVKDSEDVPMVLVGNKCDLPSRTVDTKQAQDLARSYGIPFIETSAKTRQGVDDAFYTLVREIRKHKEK
Chain of KRAS G12D (P62937 whole entry): as the sequence (P62937 whole entry) above
Chain of K-Ras G13C (P01116-2 other isoform, or with tags, fused parts or gaps G13C): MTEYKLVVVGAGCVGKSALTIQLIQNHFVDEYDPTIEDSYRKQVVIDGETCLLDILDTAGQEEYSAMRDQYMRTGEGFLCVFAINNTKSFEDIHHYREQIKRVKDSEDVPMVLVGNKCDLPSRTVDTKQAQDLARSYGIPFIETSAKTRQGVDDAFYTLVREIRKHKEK
Chain of K-Ras G13C (P62937 whole entry): as the sequence (P62937 whole entry) above
Chain of KRAS G12V (P01116-2 other isoform, or with tags, fused parts or gaps G12V): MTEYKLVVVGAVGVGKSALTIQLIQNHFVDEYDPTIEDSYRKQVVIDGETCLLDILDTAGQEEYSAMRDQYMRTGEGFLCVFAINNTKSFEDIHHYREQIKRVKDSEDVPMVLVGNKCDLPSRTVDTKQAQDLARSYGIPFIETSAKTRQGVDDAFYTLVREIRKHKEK
Chain of KRAS G12V (P62937 whole entry): as the sequence (P62937 whole entry) above
Chain of KRAS G12S (P01116-2 other isoform, or with tags, fused parts or gaps G12S): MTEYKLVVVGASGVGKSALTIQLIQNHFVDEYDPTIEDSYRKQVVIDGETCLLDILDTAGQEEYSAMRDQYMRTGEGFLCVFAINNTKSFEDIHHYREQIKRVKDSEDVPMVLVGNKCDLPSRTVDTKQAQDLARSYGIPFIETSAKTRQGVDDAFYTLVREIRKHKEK
Chain of KRAS G12S (P62937 whole entry): as the sequence (P62937 whole entry) above
Chain of NRAS G12C (P01111 whole entry G12C): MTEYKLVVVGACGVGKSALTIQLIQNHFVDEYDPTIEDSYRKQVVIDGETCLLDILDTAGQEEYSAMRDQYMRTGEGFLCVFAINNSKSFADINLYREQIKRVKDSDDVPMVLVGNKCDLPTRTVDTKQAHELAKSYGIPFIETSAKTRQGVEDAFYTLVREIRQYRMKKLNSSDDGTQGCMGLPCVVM
Chain of NRAS G12C (P62937 whole entry): as the sequence (P62937 whole entry) above
Chain of K-Ras G12C (P01116-2 other isoform, or with tags, fused parts or gaps G12C): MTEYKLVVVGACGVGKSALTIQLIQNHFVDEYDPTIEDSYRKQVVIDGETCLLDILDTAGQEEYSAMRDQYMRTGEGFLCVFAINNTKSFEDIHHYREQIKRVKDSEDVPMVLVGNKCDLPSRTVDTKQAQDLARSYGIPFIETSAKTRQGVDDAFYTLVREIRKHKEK
Chain of K-Ras G12C (P62937 whole entry): as the sequence (P62937 whole entry) above
Chain of KRAS WT (P01116-2 other isoform, or with tags, fused parts or gaps): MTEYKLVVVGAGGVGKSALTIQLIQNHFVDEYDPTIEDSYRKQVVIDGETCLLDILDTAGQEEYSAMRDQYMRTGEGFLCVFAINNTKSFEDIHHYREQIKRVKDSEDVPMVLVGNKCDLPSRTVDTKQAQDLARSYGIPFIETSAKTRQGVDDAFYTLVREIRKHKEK
Chain of KRAS WT (P62937 whole entry): as the sequence (P62937 whole entry) above

Turning to `C=CC(=O)N1C[C@@H]2C[C@H]1CN2C(=O)N(C)[C@H](C(=O)N[C@H]1Cc2nc(cs2)-c2ccc3c(c2)c(c(-c2cccnc2[C@H](C)OC)n3CC)CC(C)(C)COC(=O)[C@@H]2CCCN(N2)C1=O)C(C)C` (atropisomer, axis not shown) [Example A409], the EC50 in test [1] was under 5000 nM. The IC50 in [2] fell in the range of 10 to 100 nM; in test [3] (setting [11]), 100 to 1000 nM; in test [4] (setting [12]) it was 100 to 1000 nM; in [5] (setting [13]) it was 100 to 1000 nM; in [6] (setting [14]) it was 100 to 1000 nM; in [7] (setting [15]), 100 to 1000 nM. Also, the figures for the IC50 in test [8] (setting [16]), in [9] (setting [17]) and in [10] (setting [18]) were 100 to 1000 nM, 1000 to 10000 nM and 100 to 1000 nM, respectively.
For `CCn1c(-c2cccnc2[C@H](C)OC)c2c3cc(ccc31)-c1cc(O)cc(c1)C[C@H](NC(=O)[C@H](C(C)C)N(C)C(=O)[C@H]1CCN(S(=O)(=O)C=C(C)C)C1)C(=O)N1CCC[C@H](N1)C(=O)OCC(C)(C)C2` (atropisomer, axis not shown) [Example A305], the EC50 in [1] was under 5000 nM. Besides, the IC50 in test [2] lay within 10 to 100 nM; in [3] (IC50* KRAS G12C FRET data), 10 to 100 nM; in test [4] (IC50* KRAS G13C FRET data), 10 to 100 nM; in test [5] (KRAS G12S FRET data IC50, Ras-Raf disruption/FRET/MOA assay), 100 to 1000 nM; in test [6] (KRAS G12D FRET data IC50, Ras-Raf disruption/FRET/MOA assay) it was 1000 to 10000 nM; in test [7] (IC50* KRAS G12V FRET data), 10 to 100 nM. Moreover, the IC50 lay within 100 to 1000 nM in [8] (IC50* KRAS WT FRET data), 100 to 1000 nM in test [9] (IC50* KRAS G13D FRET data) and 10 to 100 nM in test [10] (IC50* NRAS G12C FRET data).
On to `CCn1c(-c2cccnc2COC)c2c3cc(ccc31)-c1cc(O)cc(c1)C[C@H](NC(=O)[C@H](C(C)C)N(C)C(=O)[C@H]1CCN(C(=O)C#CC3(N(C)C)CC3)C1)C(=O)N1CCC[C@H](N1)C(=O)OCC(C)(C)C2` [Example A238], for which, in test [1], the EC50 was under 5000 nM. The IC50 in test [2] was 10 to 100 nM; in [3] (setting [11]), 10 to 100 nM; in test [4] (setting [12]), 100 to 1000 nM; in test [5] (setting [13]), 1000 to 10000 nM; in [6] (setting [14]) it was over 10000 nM; in [7] (setting [15]) it was 100 to 1000 nM. Besides, the IC50 in [8] (setting [16]) was 1000 to 10000 nM; in test [9] (setting [17]), 1000 to 10000 nM; in test [10] (setting [18]), 100 to 1000 nM.
Regarding `C=CC(=O)N1CCN(C(=O)N(C)[C@H](C(=O)N[C@H]2Cc3nc(cs3)-c3ccc4c(c3)c(c(-c3cccnc3[C@H](C)OC)n4CC)CC(C)(C)COC(=O)[C@@H]3CCCN(N3)C2=O)C(C)C)C[C@H]1C` (atropisomer, axis not shown) [Example A432], the EC50 in test [1] is under 5000 nM. Moreover, the IC50 was in the range of 10 to 100 nM in test [2]; 10 to 100 nM in [3] (setting [11]); 10 to 100 nM in test [4] (setting [12]); 100 to 1000 nM in test [5] (setting [13]); 100 to 1000 nM in [6] (setting [14]); 100 to 1000 nM in test [7] (setting [15]). For the same molecule, the IC50 in test [8] (setting [16]) lay in the range of 10 to 100 nM; in test [9] (setting [17]), 100 to 1000 nM; in test [10] (setting [18]) it was 10 to 100 nM.
As for `C=CC(=O)N1C[C@H](F)[C@](F)(C(=O)N(C)[C@H](C(=O)N[C@H]2Cc3cccc(c3)-c3ccc4c(c3)c(c(-c3cccnc3[C@H](C)OC)n4CC)CC(C)(C)COC(=O)[C@@H]3CCCN(N3)C2=O)C(C)C)C1` (atropisomer, axis not shown) [Example A397], the EC50 in test [1] was under 5000 nM. Further, the IC50 in [2] was under 10 nM; in [3] (setting [11]), 10 to 100 nM; in test [4] (setting [12]) it was 10 to 100 nM; in [5] (setting [13]), 100 to 1000 nM; in test [6] (setting [14]), 1000 to 10000 nM; in [7] (setting [15]), 100 to 1000 nM. Besides, the IC50 was 100 to 1000 nM in test [8] (setting [16]), 100 to 1000 nM in test [9] (setting [17]) and 10 to 100 nM in test [10] (setting [18]).
For `CCn1c(-c2cncnc2)c2c3cc(ccc31)-c1cccc(c1)C[C@H](NC(=O)[C@H](C(C)C)N(C)C(=O)[C@H]1CCN(C(=O)C#CCN3CCOCC3)C1)C(=O)N1CCC[C@H](N1)C(=O)OCC(C)(C)C2` [Example A185], in [1], the EC50 was under 5000 nM. The IC50 in test [2] was 100 to 1000 nM; in test [3] (setting [11]) it was 100 to 1000 nM; in test [4] (setting [12]), over 10000 nM; in [5] (setting [13]), over 10000 nM; in test [6] (setting [14]), over 10000 nM; in [7] (setting [15]) it was over 10000 nM. Besides, the IC50 in test [8] (setting [16]) was over 10000 nM; in test [9] (setting [17]) it was over 10000 nM; in [10] (setting [18]), 100 to 1000 nM.
